Earlier results in patent publication US20170266293A1, “METHODS OF TREATING CANCERS WITH THERAPEUTIC NANOPARTICLES” (PFIZER INC., priority 2011, published 2017).

System: cholangiocarcinoma
Details: previous studies, Pazdur, Am. J. Clin. Oncol. 1999

CC(=O)O[C@@]12CO[C@@H]1C[C@H](O)[C@@]1(C)C(=O)[C@H](O)C3=C(C)[C@@H](OC(=O)[C@H](O)[C@@H](NC(=O)OC(C)(C)C)c4ccccc4)C[C@@](O)([C@@H](OC(=O)c4ccccc4)[C@H]21)C3(C)C [docetaxel]
Efficacy for the treatment of cholangiocarcinoma: ineffective
